From patent publication US7964732B2, “Substituted bicyclocarboxyamide compounds” (Pfizer Inc., priority 2006, dated 2011)
pIC50: −log10 of the molar value.

Key:
human VR1 [1] = target: T1, human VR1 (Homo sapiens, UniProt Q8NER1); test: Human VR1 antagonist assay (Ca2+ imaging assay using human VR1 highly expressing cells); type: cell-based; conditions: intracellular Ca2+ imaging (fura-2)
T1 construct: host or cells: cells that express human VR1 receptors (cell type not specified)
Description: VR1 antagonistic activity can be determined by the Ca^2+ imaging assay using human VR1 highly expressing cells. The cells that highly express human VR1 receptors are obtainable from several different conventional methods. The one standard method is cloning from human Dorsal Root Ganglion (DRG) or kidney according to the methods such as described in the journal article; Nature, 389, pp 816-824, 1997. Alternatively VR1 receptors highly expressing human keratinocytes are also known and published in the journal article (Biochemical and Biophysical Research Communications, 291, pp 124-129, 2002). […] Furthermore, the method to up regulate human VR1 gene, which is usually a silent gene or don't produce detectable level of VR1 receptors, is also available to obtain propriety cells. Such genetic modification method was described in detail; Nat. Biotechnol., 19, pp 440-445, 2001.
The cells that express human VR1 receptors were maintained in culture flask at 37° C. in an environment containing 5% CO2 until use in the assay. The intracellular Ca^2+ imaging assay to determine VR1 antagonistic activities were done by following procedures.
The culture medium was removed from the flask and fura-2/AM fluorescent calcium indicator was added to the flask at a concentration of 5 μM in the medium. The flask was placed in CO2 incubator and incubated for 1 hour. Then the cells expressing the human VR1 receptors were detached from the flask follow by washing with phosphate buffer saline, PBS(−) and re-suspended in assay buffer. The 80 μl of aliquot of cell suspension (3.75×10^5 cells/ml) was added to the assay plate and the cells were spun down by centrifuge (950 rpm, 20° C., 3 minutes).
Compounds of the examples were tested in the Human VR1 antagonist assay described above.
The capsaicin-induced changes in the intracellular calcium concentration were monitored using FDSS 6000 (Hamamatsu Photonics, Japan), a fluorometric imaging system. The cell suspension in Krebs-Ringer HEPES (KRH) buffer (115 mM NaCl, 5.4 mM KCl, 1 mM MgSO4, 1.8 mM CaCl2, 11 mM D-Glucose, 25 mM HEPES, 0.96 mM Na2HPO4, pH 7.3) were pre-incubated with varying concentrations of the test compounds or KRH buffer (buffer control) for 15 minutes at room temperature under the dark condition. Then capsaicin solution, which gives 300 nM in assay mixture, was automatically added to the assay plate by the FDSS 6000.
The Acid-induced changes in the intracellular calcium concentration were monitored using FDSS 6000 (Hamamatsu Photonics, Japan), a fluorometric imaging system. The cell suspension in resting buffer (HBSS supplemented with 10 mM HEPES, pH 7.4) were pre-incubated with varying concentrations of the test compounds or resting buffer (buffer control) for 15 minutes at room temperature under the dark condition. The cells were automatically added the stimulating solution (HBSS supplemented with MES, final assay buffer pH5.8) by the FDSS 6000.
The monitoring of the changes in the fluorescence signals (λex=340 nm/380 nm, λem=510-520 nm) was initiated at 1 minute prior to the addition of capsaicin solution or acidic buffer and continued for 5 minute.

human VR1 [2] = target: T1, human VR1; test: Determination of pA2 values against capsaicin stimulation (Ca2+ imaging, FLIPR TETRA, Schild analysis); type: cell-based; conditions: against capsaicin agonist dose-response
Method: pA2 values of antagonists against the capsaicin agonist dose-response were determined using a Ca^2+ imaging assay with cells expressing high levels of human VR1 (for explanation of theory behind pA2 determinations, see A Pharmacological Primer: Theory, Applications, and Methods 2nd edition by Terry P. Kenakin, pp. 102-108, Academic Press, New York, 2006). Cells that express high levels of VR1 were obtained by generation of a cell line from […] with heterologous expression of VR1 under control of an inducible promoter. Specifically, cells expressing human VR1 under the control of the human cytomegalovirus immediate-early (CMV) promoter and two tetracycline operator 2 (TetO2) sites were made using the T-REx System (Invitrogen, Carlsbad, Calif., USA). Details and methods concerning this system are published (Hum. Gene Ther. 9, pp. 1939-1950, 1998; Annu. Rev. Microbiol. 48, pp. 345-369, 1994; Mol. Biol. 169, pp. 707-721, 1983). VR1 was subcloned into the T-REx System pcDNA5/TO vector (Invitrogen Cat# V1033-20) which was transfected into the T-REx System […] cell line (Invitrogen Cat# R710-07) from which a stable cell line was established which express VR1 after induction by exposure to tetracycline or doxycycline (Hum. Gene Ther. 9, pp. 1939-1950, 1998; instructions that come with purchase of products noted above). […]
For assay preparation, cells expressing human VR1 as described above were plated in 96-well plates (Becton Dickinson [BD] poly-D-lysine coated 96-well plates, cat#356692) at 55,000 cells per well in culture media (described above) that also contains 1 ug/ml doxycycline. […] Changes in the fluorescence signal (λex=470-495 nm, λem=515-575 nm) were monitored throughout the experiment before agonist addition and for at least 2 min after agonist addition (enough time for the fluorescence response to reach and then decline from the absolute maximum, agonist-induced signal attained). […]

T1 sequence (Q8NER1 whole entry): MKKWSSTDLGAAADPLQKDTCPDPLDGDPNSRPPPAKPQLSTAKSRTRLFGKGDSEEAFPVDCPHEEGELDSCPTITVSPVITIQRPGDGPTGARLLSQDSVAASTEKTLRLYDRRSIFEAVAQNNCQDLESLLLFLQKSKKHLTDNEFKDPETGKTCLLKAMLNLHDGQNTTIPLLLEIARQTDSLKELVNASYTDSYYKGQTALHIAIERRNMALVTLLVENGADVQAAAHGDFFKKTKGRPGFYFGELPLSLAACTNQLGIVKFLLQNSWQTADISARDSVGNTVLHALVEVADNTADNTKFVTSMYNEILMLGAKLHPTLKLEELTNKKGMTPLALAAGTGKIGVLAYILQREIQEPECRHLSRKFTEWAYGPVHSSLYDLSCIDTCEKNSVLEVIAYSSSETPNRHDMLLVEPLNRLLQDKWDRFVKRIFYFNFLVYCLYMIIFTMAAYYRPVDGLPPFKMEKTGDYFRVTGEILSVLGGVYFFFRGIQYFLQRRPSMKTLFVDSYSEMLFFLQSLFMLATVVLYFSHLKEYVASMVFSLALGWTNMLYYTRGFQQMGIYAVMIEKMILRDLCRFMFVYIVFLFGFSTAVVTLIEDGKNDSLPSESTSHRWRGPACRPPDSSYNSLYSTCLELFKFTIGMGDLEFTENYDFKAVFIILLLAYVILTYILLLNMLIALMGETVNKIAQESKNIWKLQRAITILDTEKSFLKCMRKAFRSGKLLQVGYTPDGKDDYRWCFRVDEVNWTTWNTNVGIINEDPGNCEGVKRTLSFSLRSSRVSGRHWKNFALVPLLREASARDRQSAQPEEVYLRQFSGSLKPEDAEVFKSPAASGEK

pIC50 (human VR1 [1]) | Kb (human VR1 [2]; pre-incubation 2 mins) | Kb (human VR1 [2]; pre-incubation 30 mins) | Compound
7.60 | 1.74 nM | – | Cc1c([C@@H](C)NC(=O)c2ccc3nc(C(C)(C)C(F)(F)F)ccc3c2)cnn1C [Example 1]
7.58 | 1.86 nM | – | Cc1c([C@@H](C)NC(=O)c2ccc3nc(C(C)(C)C(F)(F)F)ccc3c2)cnn1CC(F)(F)F [Example 6, N-((1R)-1-(5-methyl-1-(2,2,2-trifluoroethyl)-1H-pyrazol-4-yl)ethyl)-2-(2,2,2-trifluoro-1,1-dimethylethyl)quinoline-6-carboxamide]
7.75 | – | 5.25 nM | C[C@H](NC(=O)c1ccc2nc(C(C)(C)C(F)(F)F)ccc2c1)c1cnn(C)c1Cl [Example 18]
